From patent US12116358B2, “Substituted indoles and methods of use thereof” (EPIZYME, INC., priority 2018, dated 2024)
Read-outs that look alike come from different tables or passages of the source.

Key:
[1] = tested on: H3K36me3 in A549 cells; test: In-Cell Western (ICW) assay of SETD2 inhibitors (A549 assay); format: cell-based, human
Procedure: In-Cell Western (ICW) Assay of SETD2 Inhibitors (A549 Assay)
Representative Compounds of the Disclosure were tested in the A549 assay according the following protocol.
1. Reagents and Consumables:
Prepare plates with compounds. Seed A549 cells to the plates with compounds, 4,000 cells/well, 50 μl/well. Put the plates at room temperature on a non-vibrating surface for 20 minutes before placing in the incubator. Incubate the plate at 37° C. incubator with CO2 for 3 days. Remove plate from incubator and bring to room temperature. Blot media out of the plate and add 50 μL of ice cold 100% methanol. Incubate 30 minutes at room temperature. Remove methanol by aspiration. Wash 3× with PBST. Add 50 μL of Blocking Buffer+0.1% Tween 20. Incubate 1 hour. Remove Blocking Buffer, wash 3× with PBST. Add 20 μL of H3K36me3 (1:1000 dilution). […] Incubate overnight at 4° C. Wash plate 5× with PBS-T. Add 20 μL of DRAQ5 (1:1000) and IRDye 800CW Goat anti-Rabbit IgG (1:500). Incubate for 1 hour in the dark. Wash plate 5× with PBS-T. Wash plate 3× with water. Dry by blotting on paper towel, then centrifuge plate upside down on a thin layer of paper towels for 1 minute at 1000 rpm to remove excess reagent. Leave plate uncovered for ˜10 minutes out of direct light before reading. Read on Licor instrument.
4. Licor Instrument Settings:
Preset: Plate; Resolution: 84 μm; Quality: low; Focus offset: 4.0; 700 channel intensity: 2; and 800 channel intensity: 3.

[2] = molecular target: T1, SETD2(1434-1711) (Homo sapiens, UniProt Q9BYW2); test: SETD2 (1434-1711) assay; format: biochemical; conditions: read-out: SETD2 (1434-1711)
T1 construct: SETD2 (1434-1711) Assay; catalogue N/A
T1 sequence (Q9BYW2 1434-1711): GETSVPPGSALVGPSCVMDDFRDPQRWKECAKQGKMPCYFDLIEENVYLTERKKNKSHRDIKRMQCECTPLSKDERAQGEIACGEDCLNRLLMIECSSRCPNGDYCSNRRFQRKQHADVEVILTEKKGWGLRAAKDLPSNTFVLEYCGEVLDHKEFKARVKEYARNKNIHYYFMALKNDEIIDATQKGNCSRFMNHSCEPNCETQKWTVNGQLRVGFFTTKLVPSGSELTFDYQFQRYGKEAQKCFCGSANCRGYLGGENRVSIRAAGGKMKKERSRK

[3] = A549 cells, read-out: SETD2 A549
[4] = Homo sapiens, A549 cells, read-out: SETD2 A549
[5] = Homo sapiens, A549, read-out: SETD2 A549

Compound	IC50 [1, 3] [nM]	IC50 [2] [nM]	IC50 [1, 4] [nM]	IC50 [1, 5] [nM]
Cc1ccc(F)c2cc(C(=O)Nc3cccc4cccnc34)[nH]c12 [compound 609]	> 25000	> 50000	–	–
CC(=O)N1CCN(c2cc(NC(=O)c3cc4c(F)ccc(C)c4[nH]3)cc(C(F)(F)F)c2)CC1 [compound 242]	600	100	–	–
Cc1ccc(F)c2cc(C(=O)NC3CCCC(c4cncnc4)C3)[nH]c12 (stereo not drawn) [compound 379]	> 2000	> 10000	–	–
Cc1ccc(F)c2cc(C(=O)NC3CCCC(N4CCC(N(C)C(=O)C(C)(C)O)C4)C3)[nH]c12 (stereo not drawn) [compound 1146]	200	40	–	–
CC(=O)N1CCC2C1CCN2c1cc(F)cc(NC(=O)c2cc3c(F)ccc(C)c3[nH]2)c1 (stereo not drawn) [compound 13]	50	10	–	–
CC(=O)N1CCN(C2COCC(NC(=O)c3cc4c(F)ccc(C)c4[nH]3)C2)CC1 (stereo not drawn) [compound 986]	200	60	–	–
Cc1ccc(F)c2cc(C(=O)Nc3cccc(N4CCC(N5CCC(N)CC5)CC4)c3)[nH]c12 [compound 530]	> 25000	7	–	–
Cc1ccc(F)c2cc(C(=O)Nc3cccc(N4CCN(C(=O)CN(C)C)CC4)c3)[nH]c12 [compound 208]	400	60	–	–
Cc1ccc(F)c2cc(C(=O)Nc3cc(N4CCN(C)CC4)c4cnccc4c3)[nH]c12 [compound 401]	2400	30	–	–
Cc1cccc2cc(C(=O)Nc3ccc4ccc(CN5CCN(C)CC5)cc4c3)[nH]c12 [compound 453]	–	700	5800	–
Cc1ccc(F)c2cc(C(=O)Nc3cccc(C(=O)N(C)C)c3)[nH]c12 [compound 329]	–	600	1600	–
Cc1ccc(F)c2cc(C(=O)Nc3cc(F)cc4cnccc34)[nH]c12 [Cpd. No. 82, 4-fluoro-N-(7-fluoroisoquinolin-5-yl)-7-methyl-1H-indole-2-carboxamide]	–	40	200	–
Cc1ccc(F)c2cc(C(=O)Nc3cc(F)cc(N4CC5(CCN(CC(F)F)CC5)C4)c3)[nH]c12 [compound 40]	100	40	–	–
CC(=O)N1CCN(C2CCCC(NC(=O)c3cc4c(F)ccc(C)c4[nH]3)C2)C2(CC2)C1 (stereo not drawn) [compound 1137]	> 2000	2000	–	–
CNC(=O)CN1CCCC(NC(=O)c2cc3c(F)ccc(C)c3[nH]2)C1 (stereo not drawn) [compound 384]	> 2000	> 10000	–	–
Cc1cc(CN2CCN(C)CC2)cnc1C(NC(=O)c1cc2cccc(C)c2[nH]1)C1CC1 (stereo not drawn) [compound 477]	–	2100	9300	–

Compound	IC50 [1, 3] [nM]	IC50 [2] [nM]	IC50 [1, 4] [nM]	IC50 [1, 5] [nM]
Cc1cccnc1C(NC(=O)c1cc2cccc(Cc3ccn[nH]3)c2[nH]1)C1CC1 (stereo not drawn) [compound 618]	–	> 200000	> 25000	–
Cc1ccc(F)c2cc(C(=O)NC3CCCC(N4CCC(N(C)C(=O)C(C)C)C4)C3)[nH]c12 (stereo not drawn) [compound 969]	100	4	–	–
Cc1ccc(F)c2cc(C(=O)Nc3cccc(N4CC5CCCN(C)C5C4)c3)[nH]c12 (stereo not drawn) [compound 182]	400	20	–	–
Cc1ccc(F)c2cc(C(=O)Nc3cccc(N4CCC(N(C)C)C4)c3)[nH]c12 (stereo not drawn) [compound 59]	100	10	–	–
CC(=O)N(C)C1CCN([C@@H]2CCC[C@@H](NC(=O)c3cc4c(F)ccc(C)c4[nH]3)C2)C1 (stereo partly drawn) [compound 385]	–	–	–	> 2000
CC(=O)N1CCC2CN(C3CCCC(NC(=O)c4cc5c(F)ccc(C)c5[nH]4)C3)CC21 (stereo not drawn) [compound 1183]	> 2000	–	–	–
Cc1ccc(F)c2cc(C(=O)NC3CCCC(N4CCOCC4)C3)[nH]c12 (stereo not drawn) [compound 374]	> 2000	–	–	–
CCc1ccc(C)c2[nH]c(C(=O)NC(CCC(=O)N3CCOCC3)c3ncccc3C)cc12 (stereo not drawn) [compound 485]	–	–	10800	–
Cc1cccnc1C(NC(=O)c1cc2cc(F)cc(C)c2[nH]1)C1CC1 (stereo not drawn) [compound 497]	–	–	–	13800
Cc1ccc(F)c2cc(C(=O)NC3CCCC(c4nnc(CN(C)C)o4)C3)[nH]c12 (stereo not drawn) [compound 954]	> 2000	–	–	–
Cc1ccc(F)c2cc(C(=O)NC3CCCC(N4CCN5C(=O)CCC5C4)C3)[nH]c12 (stereo not drawn) [compound 863]	20	–	–	–
CC(=O)N1CCC2C1CCN2C1CCCC(NC(=O)c2cc3c(F)ccc(C)c3[nH]2)C1 (stereo not drawn) [compound 1185]	70	–	–	–
Cc1ccc(F)c2cc(C(=O)N[C@@H]3CCC[C@H](c4ccncc4)C3)[nH]c12 [compound 913]	–	–	–	> 2000
Cc1cccc2cc(C(=O)N[C@H]3CC[C@@H](NC(=O)CCN)CC3)[nH]c12 [compound 592]	–	–	–	> 25000
Cc1cccc2cc(C(=O)Nc3ccccc3)[nH]c12 [compound 479]	–	–	–	9500
